# Measurements published in ChEMBL document CHEMBL4627415, “Design and Structural Optimization of Dual FXR/PPARδ Activators” (J Med Chem, 2020).
# Activity calls are given as the source filed them. The calls are words filed in the database; no cut-off is given here.
# Key:
# [1] = Aqueous solubility in pH 8 buffer by HPLC analysis; format: physicochemical
# [2] = target: T1, Bile acid receptor (Homo sapiens) (UniProt Q96RI1); test: Activation of FXR in human HepG2 cells assessed as increase in BSEP mRNA expression at 3 uM incubated for 8 hrs by quantitative real time PCR analysis; format: cell-based
# T1 sequence (whole entry): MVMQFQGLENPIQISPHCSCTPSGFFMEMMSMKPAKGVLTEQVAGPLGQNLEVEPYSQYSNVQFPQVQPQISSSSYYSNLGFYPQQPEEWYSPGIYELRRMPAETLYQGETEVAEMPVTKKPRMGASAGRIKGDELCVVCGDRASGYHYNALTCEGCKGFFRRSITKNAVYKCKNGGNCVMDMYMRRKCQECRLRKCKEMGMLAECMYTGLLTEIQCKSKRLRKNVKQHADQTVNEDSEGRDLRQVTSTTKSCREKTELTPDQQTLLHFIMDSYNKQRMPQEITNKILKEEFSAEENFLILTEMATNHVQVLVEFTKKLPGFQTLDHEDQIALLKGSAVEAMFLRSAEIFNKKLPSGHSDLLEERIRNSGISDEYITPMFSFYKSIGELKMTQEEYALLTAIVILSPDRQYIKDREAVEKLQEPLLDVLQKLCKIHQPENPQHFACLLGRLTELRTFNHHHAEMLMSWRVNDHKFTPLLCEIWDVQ
# [3] = target: T1, Bile acid receptor (Homo sapiens); test: Activation of human FXR LBD expressed in HEK293T cells assessed as induction of receptor activation at 1 to 3 uM incubated for 12 to 14 hrs by luciferase reporter gene assay; format: cell-based; settings: HEK-293T
# [4] = target: T2, Peroxisome proliferator-activated receptor gamma (Homo sapiens) (UniProt P37231); test: Activation of human PPAR-gamma LBD expressed in HEK293T cells assessed as induction of receptor activation at 10 uM incubated for 12 to 14 hrs by luciferase reporter gene assay; format: cell-based; settings: HEK-293T
# T2 sequence (whole entry): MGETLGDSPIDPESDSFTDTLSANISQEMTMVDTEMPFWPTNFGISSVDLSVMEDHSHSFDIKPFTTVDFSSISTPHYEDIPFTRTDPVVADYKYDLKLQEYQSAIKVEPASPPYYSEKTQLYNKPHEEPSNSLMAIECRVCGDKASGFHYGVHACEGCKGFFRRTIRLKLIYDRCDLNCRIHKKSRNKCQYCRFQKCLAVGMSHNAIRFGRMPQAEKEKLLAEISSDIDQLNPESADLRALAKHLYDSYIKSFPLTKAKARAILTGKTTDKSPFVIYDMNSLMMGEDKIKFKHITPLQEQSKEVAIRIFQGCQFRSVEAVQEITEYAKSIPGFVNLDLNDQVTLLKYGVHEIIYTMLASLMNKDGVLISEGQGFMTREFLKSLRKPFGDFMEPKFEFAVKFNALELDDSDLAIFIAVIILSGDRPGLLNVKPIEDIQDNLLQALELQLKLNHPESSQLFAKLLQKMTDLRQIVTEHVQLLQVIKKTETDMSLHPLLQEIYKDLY
# [5] = target: T3, Peroxisome proliferator-activated receptor delta (Mus musculus) (UniProt P35396); test: Activation of PPARD in mouse C2C12 cells assessed as increase LpL mRNA expression at 3 uM incubated for 8 hrs by quantitative real time PCR analysis; format: cell-based
# T3 sequence (whole entry): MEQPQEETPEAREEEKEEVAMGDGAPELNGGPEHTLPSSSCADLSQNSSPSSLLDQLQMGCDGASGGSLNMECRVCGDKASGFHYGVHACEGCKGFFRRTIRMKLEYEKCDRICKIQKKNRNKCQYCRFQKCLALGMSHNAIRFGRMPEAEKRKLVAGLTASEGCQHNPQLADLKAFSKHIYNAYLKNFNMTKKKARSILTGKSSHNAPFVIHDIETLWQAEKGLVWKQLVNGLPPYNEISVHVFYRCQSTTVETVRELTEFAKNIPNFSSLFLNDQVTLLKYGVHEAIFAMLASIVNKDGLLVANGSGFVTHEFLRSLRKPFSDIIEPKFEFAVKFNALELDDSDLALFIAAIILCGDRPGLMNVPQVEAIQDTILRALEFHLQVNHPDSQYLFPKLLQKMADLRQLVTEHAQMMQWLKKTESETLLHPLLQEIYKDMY
# [6] = target: T1, Bile acid receptor (Homo sapiens); test: Activation of human FXR LBD expressed in HEK293T cells assessed as induction of receptor activation at 10 uM incubated for 12 to 14 hrs by luciferase reporter gene assay; format: cell-based; settings: HEK-293T
# Bile acid receptor = target: T4, Bile acid receptor (Homo sapiens, UniProt Q96RI1); test: Activation of human FXR LBD expressed in HEK293T cells assessed as induction of receptor activation incubated for 12 to 14 hrs by luciferase reporter gene assay; format: cell-based, HEK-293T
# T4 sequence (Q96RI1 whole entry): T1 sequence (whole entry)
# [7] = Stability in Sprague-Dawley rat liver microsomes assessed as remaining parent compound level at 10 uM presence of NADPH regenerating system by HPLC analysis; format: ADME, Microsome; settings: read-out: Stability
# [8] = target: T5, Peroxisome proliferator-activated receptor delta (Homo sapiens) (UniProt Q03181); test: Activation of human PPAR-delta LBD expressed in HEK293T cells assessed as induction of receptor activation at 1 to 3 uM incubated for 12 to 14 hrs by luciferase reporter gene assay; format: cell-based; settings: HEK-293T
# T5 sequence (whole entry): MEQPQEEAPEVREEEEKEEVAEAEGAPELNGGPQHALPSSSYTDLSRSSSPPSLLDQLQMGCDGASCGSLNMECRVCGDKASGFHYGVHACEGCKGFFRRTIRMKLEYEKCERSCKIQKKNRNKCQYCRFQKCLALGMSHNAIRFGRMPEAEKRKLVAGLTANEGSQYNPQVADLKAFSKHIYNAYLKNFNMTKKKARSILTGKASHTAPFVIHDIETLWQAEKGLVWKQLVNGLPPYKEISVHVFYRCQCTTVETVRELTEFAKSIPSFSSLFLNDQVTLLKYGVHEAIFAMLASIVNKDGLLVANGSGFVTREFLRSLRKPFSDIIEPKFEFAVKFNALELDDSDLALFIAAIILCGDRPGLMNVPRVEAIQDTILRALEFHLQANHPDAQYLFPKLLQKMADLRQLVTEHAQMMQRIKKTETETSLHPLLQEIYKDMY
# [9] = target: T1, Bile acid receptor (Homo sapiens); test: Activation of FXR in human HepG2 cells assessed as increase in SHP mRNA expression at 3 uM incubated for 8 hrs by quantitative real time PCR analysis; format: cell-based
compound,measurement,setting,value
CC(C)c1onc(-c2c(Cl)cccc2Cl)c1COc1ccc(CNc2ccc(CC(=O)O)cc2)c(Cl)c1,solubility,[1],159 µg/mL
same,Activity,[2],Active
same,Activity,[3],Active
same,Activity,[4],inactive
same,Activity,[5],Active
same,Activity,[6],Active
same,EC50,Bile acid receptor,940 nM
same,remaining at 10 µM,[7],48%
same,Activity,[8],Active
same,Activity,[9],Active
